Data on 22 compounds can be found in patent US10729691B2, “Treatment of infectious diseases with glucose uptake inhibitors” (Kadmon Corporation LLC, priority 2015, dated 2020).

The structures appear in SMILES notation.

One assay concerns P. falciparum-infected RBCs. Kind of assay: Glycolysis IC50 / lactate excretion assay in P. falciparum-infected RBCs. It counts as cell-based. The following applies: Plasmodium falciparum. How it is done: The cultures were harvested and DNA quantitated using the standard Sybr Green I fluorescence assay. […] The culture medium was harvested and extracellular lactic acid was quantified by LC-MS.
P. falciparum (HB-3 strain) cultures were maintained in standard culture conditions. […] Parasites were grown in O+ donor blood, 2% hematocrit.
Parasite cultures were seeded in 96-well plates (1% hematocrit, 1-2% starting parasitemia, 100 μL total volume) with varying concentrations of the test compounds in a final concentration of 0.1% DMSO. Plates were cultured for 48 hours before harvesting the culture medium for LC-MS analysis. At harvest, thin smears were taken and examined microscopically to observe any alterations in parasite morphology.
Culture medium samples were diluted in 9 volumes of methanol containing U-^13C-glucose and 1-^13C-lactate (final concentration 0.25 mM each). The samples were clarified by centrifugation at 13,000 RCF for 10 minutes. […] Mobile phase A was acetonitrile, and mobile phase B was 20 mM ammonium acetate (pH 9.4).
(§1) The sample was analyzed on an Exactive mass spectrometer (Thermo Scientific) to determine the chromatographic peak areas the analytes and internal standards. Glucose and lactate were quantified by taking the ratio of the unlabeled peak area to the area of the isotope-labeled standard.
As usually defined, the IC50 is the concentration at which inhibition is half-maximal. `CC(C)NC(=O)COc1cccc(-c2nc(Nc3ccc4[nH]ncc4c3)c3sccc3n2)c1` [Example 3] returned a 50% inhibitory concentration (IC50) of 101 to 250 nM. On the same count and under the same terms, the figure for `CC(C)NC(=O)COc1cccc(-c2nc3c(c(Nc4ccc(-c5cn[nH]c5)cc4)n2)CSC3)c1` [Example 34, 2-(3-(4-((4-(1H-pyrazol-4-yl)phenyl)amino)-5,7-dihydrothieno[3,4-d]pyrimidin-2-yl)phenoxy)-N-isopropylacetamide] is 501 to 1000 nM; for `O=C(COc1cccc(-c2nc3c(c(Nc4ccc(-c5cn[nH]c5)cc4)n2)CSC3)c1)NC1CCC1` [Example 35, 2-(3-(4-((4-(1H-pyrazol-4-yl)phenyl)amino)-5,7-dihydrothieno[3,4-d]pyrimidin-2-yl)phenoxy)-N-cyclobutylacetamide] it is 501 to 1000 nM; for `O=C(COc1cccc(-c2nc3c(c(Nc4ccc(-c5cn[nH]c5)cc4)n2)CSC3)c1)NC1CCCC1` [Example 36, 2-(3-(4-((4-(1H-pyrazol-4-yl)phenyl)amino)-5,7-dihydrothieno[3,4-d]pyrimidin-2-yl)phenoxy)-N-cyclopentylacetamide] it is 501 to 1000 nM. Still for that read-out and setting: the figure for `CC(C)NC(=O)COc1cccc(-c2nc3c(c(Nc4ccc(-c5cn[nH]c5)cc4)n2)COCC3)c1` [Example 40, 2-(3-(4-((4-(1H-pyrazol-4-yl)phenyl)amino)-7,8-dihydro-5H-pyrano[4,3-d]pyrimidin-2-yl)phenoxy)-N-isopropylacetamide] is 10 to 100 nM. Same read-out and setting: the figure for `CCC(C)NC(=O)COc1cccc(-c2nc3c(c(Nc4ccc(-c5cn[nH]c5)cc4)n2)COCC3)c1` (centres unmarked) [Example 41, 2-(3-(4-((4-(1H-pyrazol-4-yl)phenyl)amino)-7,8-dihydro-5H-pyrano[4,3-d]pyrimidin-2-yl)phenoxy)-N-(sec-butyl)acetamide] is 10 to 100 nM. On to `CC(C)(C)NC(=O)COc1cccc(-c2nc(Nc3ccc(-c4cn[nH]c4)cc3)c3sccc3n2)c1` [Example 42, 2-(3-(4-((4-(1H-pyrazol-4-yl)phenyl)amino)thieno[3,2-d]pyrimidin-2-yl)phenoxy)-N-(tert-butyl)acetamide], for which the IC50 was 101 to 250 nM.

As for `CCC(C)(C)NC(=O)COc1cccc(-c2nc(Nc3ccc(-c4cn[nH]c4)cc3)c3sccc3n2)c1` [Example 43, 2-(3-(4-((4-(1H-pyrazol-4-yl)phenyl)amino)thieno[3,2-d]pyrimidin-2-yl)phenoxy)-N-(tert-pentyl)acetamide], the IC50 was in the range of 10 to 100 nM. As for `CC(=O)N1CCc2nc(-c3cccc(OCC(=O)NC(C)C)c3)nc(Nc3ccc(-c4cn[nH]c4)cc3)c2C1` [Example 44, 2-(3-(4-((4-(1H-pyrazol-4-yl)phenyl)amino)-6-acetyl-5,6,7,8-tetrahydropyrido[4,3-d]pyrimidin-2-yl)phenoxy)-N-isopropylacetamide], the IC50 was 10 to 100 nM. Turning to `CCC(CC)NC(=O)COc1cccc(-c2nc3c(c(Nc4ccc(-c5cn[nH]c5)cc4)n2)CN(C(C)=O)CC3)c1` [Example 45, 2-(3-(4-((4-(1H-pyrazol-4-yl)phenyl)amino)-6-acetyl-5,6,7,8-tetrahydropyrido[4,3-d]pyrimidin-2-yl)phenoxy)-N-(pentan-3-yl)acetamide], the IC50 is 10 to 100 nM.

Consider `CC(C)CNC(=O)COc1cccc(-c2nc3c(c(Nc4ccc(-c5cn[nH]c5)cc4)n2)COCC3)c1` [Example 46, 2-(3-(4-((4-(1H-pyrazol-4-yl)phenyl)amino)-7,8-dihydro-5H-pyrano[4,3-d]pyrimidin-2-yl)phenoxy)-N-isobutylacetamide], for which the IC50 lay in the range of 10 to 100 nM. Still for that read-out and setting: the figure for `CC(C)(C)CNC(=O)COc1cccc(-c2nc3c(c(Nc4ccc(-c5cn[nH]c5)cc4)n2)COCC3)c1` [Example 47, 2-(3-(4-((4-(1H-pyrazol-4-yl)phenyl)amino)-7,8-dihydro-5H-pyrano[4,3-d]pyrimidin-2-yl)phenoxy)-N-neopentylacetamide] is 10 to 100 nM; for `CC(=O)N1CCc2nc(-c3cccc(OCC(=O)NC(C)(C)C)c3)nc(Nc3ccc(-c4cn[nH]c4)cc3)c2C1` [Example 48, 2-(3-(4-((4-(1H-pyrazol-4-yl)phenyl)amino)-6-acetyl-5,6,7,8-tetrahydropyrido[4,3-d]pyrimidin-2-yl)phenoxy)-N-(tert-butyl)acetamide] it is 10 to 100 nM; for `O=C(COc1cccc(-c2nc3c(c(Nc4ccc(-c5cn[nH]c5)cc4)n2)COCC3)c1)NC1CCCC1` [Example 51, 2-(3-(4-((4-(1H-pyrazol-4-yl)phenyl)amino)-7,8-dihydro-5H-pyrano[4,3-d]pyrimidin-2-yl)phenoxy)-N-cyclopentylacetamide] it is 101 to 250 nM. With `O=C(COc1cccc(-c2nc3c(c(Nc4ccc(-c5cn[nH]c5)cc4)n2)COCC3)c1)NC1CCC1` [Example 52, 2-(3-(4-((4-(1H-pyrazol-4-yl)phenyl)amino)-7,8-dihydro-5H-pyrano[4,3-d]pyrimidin-2-yl)phenoxy)-N-cyclobutylacetamide], the half-maximal inhibitory concentration (IC50) lay within 101 to 250 nM. For `CC(C)NC(=O)COc1cccc(-c2nc(Nc3ccc(-c4cn[nH]c4)cc3)c3cnccc3n2)c1` [Example 53, 2-(3-(4-((4-(1H-pyrazol-4-yl)phenyl)amino)pyrido[4,3-d]pyrimidin-2-yl)phenoxy)-N-isopropylacetamide], the 50% inhibitory concentration (IC50) was 101 to 250 nM. As to `CC(=O)N1Cc2nc(-c3cccc(OCC(=O)NC(C)C)c3)nc(Nc3ccc(-c4cn[nH]c4)cc3)c2C1` [Example 54, 2-(3-(4-((4-(1H-pyrazol-4-yl)phenyl)amino)-6-acetyl-6,7-dihydro-5H-pyrrolo[3,4-d]pyrimidin-2-yl)phenoxy)-N-isopropylacetamide], the IC50 fell in the range of 501 to 1000 nM. Still for that read-out and setting: the figure for `CCC(CC)NC(=O)COc1cccc(-c2nc3c(c(Nc4ccc(-c5cn[nH]c5)cc4)n2)CN(C(C)=O)C3)c1` [Example 55, 2-(3-(4-((4-(1H-pyrazol-4-yl)phenyl)amino)-6-acetyl-6,7-dihydro-5H-pyrrolo[3,4-d]pyrimidin-2-yl)phenoxy)-N-(pentan-3-yl)acetamide] is 10 to 100 nM; for `CC(=O)N1Cc2nc(-c3cccc(OCC(=O)NC(C)(C)C)c3)nc(Nc3ccc(-c4cn[nH]c4)cc3)c2C1` [Example 56, 2-(3-(4-((4-(1H-pyrazol-4-yl)phenyl)amino)-6-acetyl-6,7-dihydro-5H-pyrrolo[3,4-d]pyrimidin-2-yl)phenoxy)-N-(tert-butyl)acetamide] it is 101 to 250 nM; for `CC(=O)N1CCc2nc(-c3cccc(OCC(=O)NC4CCCC4)c3)nc(Nc3ccc(-c4cn[nH]c4)cc3)c2C1` [Example 57, 2-(3-(4-((4-(1H-pyrazol-4-yl)phenyl)amino)-6-acetyl-5,6,7,8-tetrahydropyrido[4,3-d]pyrimidin-2-yl)phenoxy)-N-cyclopentylacetamide] it is 101 to 250 nM. The compound `CC(C)(C)NC(=O)COc1cccc(-c2nc(Nc3ccc(-c4cn[nH]c4)cc3)c3cnccc3n2)c1` [Example 58, 2-(3-(4-((4-(1H-pyrazol-4-yl)phenyl)amino)pyrido[4,3-d]pyrimidin-2-yl)phenoxy)-N-(tert-butyl)acetamide] returned an IC50 of 101 to 250 nM. Consider `CC(=O)N1CCc2nc(-c3cccc(OCC(=O)NCC(C)C)c3)nc(Nc3ccc(-c4cn[nH]c4)cc3)c2C1` [Example 59, 2-(3-(4-((4-(1H-pyrazol-4-yl)phenyl)amino)-6-acetyl-5,6,7,8-tetrahydropyrido[4,3-d]pyrimidin-2-yl)phenoxy)-N-isobutylacetamide], for which the IC50 lay within 101 to 250 nM.

In another assay the test system is P. falciparum (3D7 strain)-infected erythrocyte cultures. Kind of assay: LC-MS metabolomics analysis of ATP levels in infected erythrocyte cultures. The settings on record: 2.5 uM compound. The class given is cell-based, Plasmodium falciparum. As for the experimental part: The ATP levels of the infected cells are substantially depleted within 15 minutes of compound exposure and remain so for the duration of the experiment.
Cellular metabolite levels were determined in cultures that had been enriched for late stage (trophozoite/schizont)-infected erythrocytes by centrifuging a bulk culture suspension over a two-step Percoll gradient (65%/35% Percoll) at 1,500 RCF for 15 minutes and collecting the parasitized erythrocytes at the interface. 10 uL of packed cells were pelleted from the resulting cultures by centrifugation (500 RCF, 5 minutes), the culture medium removed by aspiration, and the cells extracted with 1.2 mL of 80% methanol/20% on dry ice. The first extraction was collected as the supernatant after centrifugation (1,000 RCF, 5 minutes) and the pellet extracted again with 0.3 mL of 80% methanol/20%. The two extracts were pooled, dried under nitrogen and resuspended in 200 uL of water prior to LC-MS analysis. […]
as §1
`CC(C)NC(=O)COc1cccc(-c2nc(Nc3ccc4[nH]ncc4c3)c3sccc3n2)c1` [Example 3]: the “time until ATP levels of the infected cells are substantially depleted” value was not above 15 min.
